pIC50: −log10 of the molar value.
Tests used:
Assay in all cases: cells
NB69 = assay type: functional, cell-based, Homo sapiens; settings: Homo sapiens, NB69;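 further: growth inhibition of NB69 cells, determined by a cell viability assay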
Description: SANGER: Inhibition of human NB69 cell growth in a cell viability assay.

NCI-H1770 = assay type: functional, cell-based, Homo sapiens; settings: Homo sapiens, NCI-H1770;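 further: growth inhibition of NCI-H1770 cells determined with a viability readout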
Description: SANGER: Inhibition of human NCI-H1770 cell growth in a cell viability assay.

NOS-1 = assay type: functional, cell-based, Homo sapiens; settings: Homo sapiens, NOS-1;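 further: growth inhibition of the human NOS-1 cell line, read out with a cell viability assay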
Description: SANGER: Inhibition of human NOS-1 cell growth in a cell viability assay.

SK-LMS-1 = assay type: functional, cell-based, Homo sapiens; settings: Homo sapiens, SK-LMS-1;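 further: growth inhibition of human SK-LMS-1 cells, read out with a cell viability assay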
Description: SANGER: Inhibition of human SK-LMS-1 cell growth in a cell viability assay.

COLO-829 = assay type: functional, cell-based, Homo sapiens; settings: Homo sapiens, COLO-829
Description: SANGER: Inhibition of human COLO-829 cell growth in a cell viability assay.

D-263MG = assay type: functional, cell-based, Homo sapiens; settings: Homo sapiens, D-263MG
Description: SANGER: Inhibition of human D-263MG cell growth in a cell viability assay.

DU-4475 = assay type: functional, cell-based, Homo sapiens; settings: Homo sapiens, DU-4475
Description: SANGER: Inhibition of human DU-4475 cell growth in a cell viability assay.

ES5 = assay type: functional, cell-based, Homo sapiens; settings: Homo sapiens, ES5;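 further: growth inhibition of human ES5 cells, read out by a cell viability assay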
Description: SANGER: Inhibition of human ES5 cell growth in a cell viability assay.

ES6 = assay type: functional, cell-based; settings: Homo sapiens;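 further: growth inhibition of human ES6 cells, read out with a cell viability assay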
Description: SANGER: Inhibition of human ES6 cell growth in a cell viability assay.

ES7 = assay type: functional, cell-based, Homo sapiens; settings: Homo sapiens, ES7;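 further: growth inhibition of cultured human ES7 cells, read out as cell viability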
Description: SANGER: Inhibition of human ES7 cell growth in a cell viability assay.

EW-3 = assay type: functional, cell-based, Homo sapiens; settings: Homo sapiens, EW-3;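 further: cell viability assay read-out, IC50 reflects inhibition of growth of the EW-3 cells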
Description: SANGER: Inhibition of human EW-3 cell growth in a cell viability assay.

GOTO = assay type: functional, cell-based, Homo sapiens; settings: Homo sapiens, GOTO;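 further: growth inhibition of GOTO cells, read out by a cell viability assay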
Description: SANGER: Inhibition of human GOTO cell growth in a cell viability assay.

HCC2218 = assay type: functional, cell-based, Homo sapiens; settings: Homo sapiens, HCC2218;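 further: cell viability assay read-out, with IC50 given as the concentration that inhibits growth of the cell line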
Description: SANGER: Inhibition of human HCC2218 cell growth in a cell viability assay.

HEL = assay type: functional, cell-based, Homo sapiens; settings: Homo sapiens, HEL;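 further: growth inhibition of HEL cells, read out with a cell viability assay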
Description: SANGER: Inhibition of human HEL cell growth in a cell viability assay.

IST-MES1 = assay type: functional, cell-based, Homo sapiens; settings: Homo sapiens, IST-MES1;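 further: growth inhibition of IST-MES1 cells, measured with a cell viability assay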
Description: SANGER: Inhibition of human IST-MES1 cell growth in a cell viability assay.

K562 = assay type: functional, cell-based, Homo sapiens; settings: Homo sapiens, K562
Description: SANGER: Inhibition of human K-562 cell growth in a cell viability assay.

KS-1 = assay type: functional, cell-based; settings: Homo sapiens;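 further: growth inhibition of KS-1 cells, read out with a cell viability assay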
Description: SANGER: Inhibition of human KS-1 cell growth in a cell viability assay.

L-363 = assay type: functional, cell-based, Homo sapiens; settings: Homo sapiens, L-363
Description: SANGER: Inhibition of human L-363 cell growth in a cell viability assay.

L-428 = assay type: functional, cell-based, Homo sapiens; settings: Homo sapiens, L-428
Description: SANGER: Inhibition of human L-428 cell growth in a cell viability assay.

LS-1034 = assay type: functional, cell-based, Homo sapiens; settings: Homo sapiens, LS-1034
Description: SANGER: Inhibition of human LS-1034 cell growth in a cell viability assay.

LU-139 = assay type: functional, cell-based, Homo sapiens; settings: Homo sapiens, LU-139
Description: SANGER: Inhibition of human LU-139 cell growth in a cell viability assay.

MFM-223 = assay type: functional, cell-based, Homo sapiens; settings: Homo sapiens, MFM-223
Description: SANGER: Inhibition of human MFM-223 cell growth in a cell viability assay.

MOLT-4 = assay type: functional, cell-based, Homo sapiens; settings: Homo sapiens, MOLT-4;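 further: growth inhibition of MOLT-4 cells, determined with a cell viability readout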
Description: SANGER: Inhibition of human MOLT-4 cell growth in a cell viability assay.

MPP-89 = assay type: functional, cell-based, Homo sapiens; settings: Homo sapiens, MPP-89;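 further: growth inhibition of human MPP-89 cells, read out with a cell viability assay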
Description: SANGER: Inhibition of human MPP-89 cell growth in a cell viability assay.

MV4-11 = assay type: functional, cell-based, Homo sapiens, MV-4-11; settings: Homo sapiens, MV4-11;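 further: cell viability readout measuring growth inhibition of human MV-4-11 cells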
Description: SANGER: Inhibition of human MV-4-11 cell growth in a cell viability assay.

Mo = assay type: functional, cell-based, Homo sapiens; settings: Homo sapiens, Mo
Description: SANGER: Inhibition of human Mo-T cell growth in a cell viability assay.

NB10 = assay type: functional, cell-based, Homo sapiens; settings: Homo sapiens, NB10;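 further: growth inhibition of NB10 cells, read out by a cell viability assay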
Description: SANGER: Inhibition of human NB10 cell growth in a cell viability assay.

NB13 = assay type: functional, cell-based, Homo sapiens; settings: Homo sapiens, NB13;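 further: cell viability readout measuring growth inhibition of human NB13 cells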
Description: SANGER: Inhibition of human NB13 cell growth in a cell viability assay.

NCI-H1299 = assay type: functional, cell-based; settings: Homo sapiens;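 further: growth inhibition of human NCI-H1299 cells, read out by a cell viability assay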
Description: SANGER: Inhibition of human NCI-H1299 cell growth in a cell viability assay.

NCI-H1304 = assay type: functional, cell-based, Homo sapiens; settings: Homo sapiens, NCI-H1304;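 further: growth inhibition of the cancer cell line, measured in a cell viability assay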
Description: SANGER: Inhibition of human NCI-H1304 cell growth in a cell viability assay.

NCI-H1648 = assay type: functional, cell-based, Homo sapiens; settings: Homo sapiens, NCI-H1648;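 further: cell viability assay measuring inhibition of NCI-H1648 cell growth, from the Sanger screening data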
Description: SANGER: Inhibition of human NCI-H1648 cell growth in a cell viability assay.

NCI-H1838 = assay type: functional, cell-based, Homo sapiens; settings: Homo sapiens, NCI-H1838;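 further: growth inhibition of NCI-H1838 cells, determined with a cell viability readout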
Description: SANGER: Inhibition of human NCI-H1838 cell growth in a cell viability assay.

NCI-H720 = assay type: functional, cell-based, Homo sapiens; settings: Homo sapiens, NCI-H720;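 further: growth inhibition of human NCI-H720 cells determined by a cell viability assay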
Description: SANGER: Inhibition of human NCI-H720 cell growth in a cell viability assay.

NH-12 = assay type: functional, cell-based, Homo sapiens; settings: Homo sapiens, NH-12;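 further: growth inhibition of NH-12 cells, read out with a cell viability assay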
Description: SANGER: Inhibition of human NH-12 cell growth in a cell viability assay.

OS-RC-2 = assay type: functional, cell-based, Homo sapiens; settings: Homo sapiens, OS-RC-2;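 further: growth inhibition of human OS-RC-2 cells, measured by a cell viability assay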
Description: SANGER: Inhibition of human OS-RC-2 cell growth in a cell viability assay.

SF-126 = assay type: functional, cell-based, Homo sapiens; settings: Homo sapiens, SF-126;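 further: growth inhibition of human SF126 cells, read out with a cell viability assay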
Description: SANGER: Inhibition of human SF126 cell growth in a cell viability assay.

SF-539 = assay type: functional, cell-based, Homo sapiens; settings: Homo sapiens, SF-539;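 further: Read-out is a cell viability assay, with IC50 reflecting inhibition of cell growth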
Description: SANGER: Inhibition of human SF539 cell growth in a cell viability assay.

SK-MEL-2 = assay type: functional, cell-based, Homo sapiens; settings: Homo sapiens, SK-MEL-2;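 further: growth inhibition of human SK-MEL-2 cells measured with a cell viability assay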
Description: SANGER: Inhibition of human SK-MEL-2 cell growth in a cell viability assay.

SK-NEP-1 = assay type: functional, cell-based, Homo sapiens; settings: Homo sapiens, SK-NEP-1;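 further: growth inhibition of human SK-NEP-1 cells, read out by a cell viability assay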
Description: SANGER: Inhibition of human SK-NEP-1 cell growth in a cell viability assay.

SK-PN-DW = assay type: functional, cell-based, Homo sapiens; settings: Homo sapiens, SK-PN-DW;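 further: growth inhibition measured with a viability assay on these cells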
Description: SANGER: Inhibition of human SK-PN-DW cell growth in a cell viability assay.

SW684 = assay type: functional, cell-based, Homo sapiens; settings: Homo sapiens, SW684; read-out: IC50;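 further: growth inhibition of human SW684 cells, measured by a cell viability assay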
Description: SANGER: Inhibition of human SW684 cell growth in a cell viability assay.

TE-1 = assay type: functional, cell-based, Homo sapiens; settings: Homo sapiens, TE-1
Description: SANGER: Inhibition of human TE-1 cell growth in a cell viability assay.

697 = assay type: functional, cell-based, Homo sapiens; settings: Homo sapiens
Description: SANGER: Inhibition of human 697 cell growth in a cell viability assay.

A704 = assay type: functional, cell-based; settings: Homo sapiens;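 further: growth inhibition of human A704 cells, read out with a cell viability assay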
Description: SANGER: Inhibition of human A704 cell growth in a cell viability assay.

ATN-1 = assay type: functional, cell-based, Homo sapiens; settings: Homo sapiens, ATN-1;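 further: growth inhibition of human ATN-1 cells, read out with a cell viability assay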
Description: SANGER: Inhibition of human ATN-1 cell growth in a cell viability assay.

BB49-HNC = assay type: functional, cell-based, Homo sapiens; settings: Homo sapiens, BB49-HNC;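 further: cell viability assay read-out, reported as inhibition of BB49-HNC cell growth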
Description: SANGER: Inhibition of human BB49-HNC cell growth in a cell viability assay.

TE-12 = assay type: functional, cell-based, Homo sapiens; settings: Homo sapiens, TE-12;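 further: growth inhibition of TE-12 cells, read out by a cell viability assay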
Description: SANGER: Inhibition of human TE-12 cell growth in a cell viability assay.

TE-6 = assay type: functional, cell-based, Homo sapiens; settings: Homo sapiens, TE-6;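 further: growth inhibition of TE-6 cells, read out with a cell viability assay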
Description: SANGER: Inhibition of human TE-6 cell growth in a cell viability assay.

TK-10 = assay type: functional, cell-based, Homo sapiens; settings: Homo sapiens, TK-10;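 further: growth inhibition of TK-10 cells, read out in a cell viability assay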
Description: SANGER: Inhibition of human TK10 cell growth in a cell viability assay.

CGTH-W-1 = assay type: functional, cell-based, Homo sapiens; settings: Homo sapiens, CGTH-W-1;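 further: growth inhibition of human CGTH-W-1 cells measured by cell viability assay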
Description: SANGER: Inhibition of human CGTH-W-1 cell growth in a cell viability assay.

In the case of `CO[C@@H]1[C@H](N(C)C(=O)c2ccccc2)C[C@H]2O[C@]1(C)n1c3ccccc3c3c4c(c5c6ccccc6n2c5c31)C(=O)NC4` [MIDOSTAURIN], the pIC50 (NB69) was < 6.29, the pIC50 (NCI-H1770) was < 6.29 and the pIC50 (NOS-1) was < 6.29. The pIC50 (SK-LMS-1) was 6.45.
For `CC1(C)CCC(c2ccc(Cl)cc2)=C(CN2CCN(c3ccc(C(=O)NS(=O)(=O)c4ccc(N[C@H](CCN5CCOCC5)CSc5ccccc5)c(S(=O)(=O)C(F)(F)F)c4)cc3)CC2)C1` [NAVITOCLAX], the pIC50 (COLO-829) was < 5.70, the pIC50 (D-263MG) was < 5.70 and the pIC50 (DU-4475) was 6.18. The pIC50 (ES5) was < 5.70, the pIC50 (ES6) was < 5.70 and the pIC50 (ES7) was 5.89. For the same molecule, the pIC50 (EW-3) was 7.09, the pIC50 (GOTO) was < 5.70 and the pIC50 (HCC2218) was < 5.70. The pIC50 (HEL) was 5.88, the pIC50 (IST-MES1) was < 5.70 and the pIC50 (K562) was < 5.70. For the same molecule, the pIC50 (KS-1) was < 5.70, the pIC50 (L-363) was < 5.70 and the pIC50 (L-428) was 5.99. For the same molecule, the pIC50 (LS-1034) was < 5.70, the pIC50 (LU-139) was 6.69 and the pIC50 (MFM-223) was < 5.70. For the same molecule, the pIC50 (MOLT-4) was 6.82, the pIC50 (MPP-89) was < 5.70 and the pIC50 (MV4-11) was 7.80. For the same molecule, the pIC50 (Mo) was < 5.70, the pIC50 (NB10) was < 5.70 and the pIC50 (NB13) was 7.09. For the same molecule, the pIC50 (NB69) was 5.83, the pIC50 (NCI-H1299) was < 5.70 and the pIC50 (NCI-H1304) was 6.34. For the same molecule, the pIC50 (NCI-H1648) was 5.77, the pIC50 (NCI-H1770) was < 5.70 and the pIC50 (NCI-H1838) was < 5.70. The pIC50 (NCI-H720) was 7.40, the pIC50 (NH-12) was 6.97 and the pIC50 (NOS-1) was < 5.70. The pIC50 (OS-RC-2) was < 5.70, the pIC50 (SF-126) was < 5.70 and the pIC50 (SF-539) was < 5.70. For the same molecule, the pIC50 (SK-MEL-2) was < 5.70, the pIC50 (SK-NEP-1) was 7.14 and the pIC50 (SK-PN-DW) was < 5.70. For the same molecule, the pIC50 (SW684) was < 5.70, the pIC50 (TE-1) was < 5.70 and the pIC50 697 was 6.97. The pIC50 (A704) was 6.37, the pIC50 (ATN-1) was 7.32 and the pIC50 (BB49-HNC) was < 5.70. The pIC50 (TE-12) was < 5.70, the pIC50 (TE-6) was < 5.70 and the pIC50 (TK-10) was < 5.70. For the same molecule, the pIC50 (CGTH-W-1) was < 5.70.

Source: ChEMBL document CHEMBL1201861, “Genomics of Drug Sensitity in Cancer screening data, Wellcome Trust Sanger Institute”
